PubChem BioAssay (NCI)
Values joined by “and” are separate entries in the source; they are usually repeats but may differ in a detail not shown here. Identical values can stand only once.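 Tested at 5 concentrations; 48 h exposure; 96-well plates; endpoints linearly interpolated, else capped at highest concentration. GI50: concentration for 50% inhibition of growth. Definition used: TGI = concentration required for complete inhibition of growth.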

Columns and labels:
Assay in all cases: growth of human tumour cells (NCI), 48 h
OVCAR-3 ovarian = test system: OVCAR-3 ovarian
TK-10 renal = test system: TK-10 renal
MOLT-4 leukemia = test system: MOLT-4 leukemia
RXF 393 renal = test system: RXF 393 renal
HOP-92 NSCLC = test system: HOP-92 NSCLC
786-0 renal = test system: 786-0 renal
HS 578T breast = test system: HS 578T breast
M14 melanoma = test system: M14 melanoma
EKVX NSCLC = test system: EKVX NSCLC
BT-549 breast = test system: BT-549 breast

| Compound | GI50 (OVCAR-3 ovarian) | TGI (OVCAR-3 ovarian) | GI50 (TK-10 renal) | TGI (TK-10 renal) | GI50 (MOLT-4 leukemia) | TGI (MOLT-4 leukemia) | GI50 (RXF 393 renal) | TGI (RXF 393 renal) | GI50 (HOP-92 NSCLC) | TGI (HOP-92 NSCLC) | GI50 (786-0 renal) | TGI (786-0 renal) | GI50 (HS 578T breast) | TGI (HS 578T breast) | GI50 (M14 melanoma) | TGI (M14 melanoma) | GI50 (EKVX NSCLC) | TGI (EKVX NSCLC) | GI50 (BT-549 breast) | TGI (BT-549 breast) |
| --- | --- | --- | --- | --- | --- | --- | --- | --- | --- | --- | --- | --- | --- | --- | --- | --- | --- | --- | --- | --- |
| O=C1/C(=C/c2cccc(F)c2)CN(C(=O)C(Cl)Cl)C/C1=C\c1cccc(F)c1 | 0.19 µM | 0.41 µM | 0.433 µM | 1.45 µM | 0.0905 µM | 3.6 µM | 0.194 µM | 0.397 µM | 0.499 µM | 1.44 µM | 0.217 µM | 0.536 µM | 0.303 µM | 1.25 µM | 0.258 µM | 0.872 µM | 0.263 µM | 0.804 µM | 0.252 µM | 0.787 µM |
| CN1CCN(Cc2ccc(NC(=O)c3cncc(C#Cc4ncc5ccccn45)c3)cc2C(F)(F)F)CC1 | 2.43 µM | 8.21 µM | 3.43 µM | 8.21 µM | 0.892 µM | 5.82 µM | 1.09 µM | 3.73 µM | 0.762 µM | 2.37 µM | 3 µM | 6.4 µM | 0.688 µM | 3.61 µM | 1.01 µM | 3.98 µM | 1.3 µM | 5.54 µM | 1.98 µM | 5.03 µM |
| CCCC(CCC)C(=O)O | > 100 µM | > 20000 µM | > 100 µM | > 20000 µM | > 100 µM | > 20000 µM | > 100 µM | > 100 µM and 14600 µM | > 100 µM | > 20000 µM | > 20000 µM | > 20000 µM | – | > 20000 µM | 19900 µM | > 20000 µM | > 20000 µM | > 20000 µM | > 100 µM | > 20000 µM |
| C=CC(=O)Nc1cccc(Nc2nc(Nc3ccc(N4CCN(C(C)=O)CC4)cc3OC)ncc2C(F)(F)F)c1 | 3.69 µM and 1.07 µM | > 30.3 µM | 0.32 µM and 0.441 µM | 2.16 µM and 4.03 µM | 5.47 µM and 4.04 µM | > 58.5 µM | 2.83 µM and 2.17 µM | > 10 µM and 10.1 µM | 0.787 µM and 0.525 µM | 4.88 µM and 4.21 µM | 2.67 µM and 1.56 µM | > 10 µM and 12.8 µM | 3.73 µM and 3.36 µM | > 95.9 µM | 3.67 µM and 2.73 µM | > 100 µM | 1.36 µM and 1.68 µM | > 10 µM and 12.4 µM | 4.14 µM | > 10 µM and 10.6 µM |
| CCC(=O)OCN1C(=O)C=CC1=O | 12.9 µM | 25.7 µM and 18.6 µM | 15.6 µM | 29.3 µM and 18.4 µM | 3.32 µM | – | – | 30.6 µM and 30.5 µM | 2.65 µM | 16.7 µM and 31.6 µM | 21.7 µM | 41.4 µM and 11.3 µM | 27.8 µM | 73.3 µM and 36.5 µM | – | 37.5 µM and 32.3 µM | 16.8 µM | 32.4 µM and 42.5 µM | – | 33.3 µM and 34.4 µM |
| CN1C(=O)C(C)(C)Oc2c(-c3cn(C)c(=O)c4[nH]ccc34)cc(S(C)(=O)=O)cc21 | 0.999 µM | 5.17 µM | 0.495 µM | 14.6 µM | 1.42 µM | > 100 µM | 1.59 µM | 7.12 µM | 0.408 µM | > 100 µM | 2.06 µM | > 100 µM | 0.425 µM | 6.71 µM | 0.727 µM | > 100 µM | 0.972 µM | > 100 µM | 1.09 µM | 14.7 µM |
| CC(=O)Nc1cc(CN2CCCCC2)c(O)c2ncccc12 | – | 96.9 µM | – | > 100 µM | – | 43.1 µM | – | > 100 µM | – | > 100 µM | – | 40.9 µM | – | > 100 µM | – | 68.2 µM | – | > 100 µM | – | > 100 µM |
| COc1ccc2c(c1)NC(=O)CN2c1nc(C)nc2ccccc12 | 0.000266 µM | 0.000746 µM | – | > 100 µM | 0.000605 µM | > 100 µM | – | > 100 µM | 49.5 µM | > 100 µM | 0.00346 µM | > 100 µM | 0.000601 µM | > 100 µM | 0.000336 µM | > 100 µM | – | > 100 µM | 0.0021 µM | – |
| COC(=O)CCc1c(/C=C2\N=C(c3ccc[nH]3)C=C2OC)[nH]c(C)c1C(=O)OCc1ccccc1 | 0.34 µM | 1.64 µM | 0.873 µM | 7.05 µM | 0.23 µM | 5.1 µM | 0.549 µM | 3.38 µM | 0.197 µM | 0.73 µM | 0.159 µM | 1.3 µM | 0.491 µM | 3.78 µM | 0.256 µM | 0.784 µM | 0.733 µM | 5.29 µM | 0.335 µM | 2.57 µM |
| CC1(C)N=C(N)N=C(N)N1c1ccc(CCC(=O)Nc2cccc(S(=O)(=O)F)c2)cc1 | 54.1 µM | > 100 µM | 5.57 µM | > 100 µM | 19.8 µM | > 100 µM | 56.8 µM | > 100 µM | > 100 µM | > 100 µM | 3.89 µM | > 100 µM | > 100 µM | > 100 µM | 6.69 µM | > 100 µM | > 100 µM | > 100 µM | 7.21 µM | > 100 µM |
